Legend:
Sagittaria pygmaea, L. [1] = test: Preemergence weed control under flooded paddy conditions, SAGPY (Arrowhead (Pygmaea)); format: in vivo; settings: flooded paddy; note: meaning of each grade not given here
[2] = tested on: Cyperus serotinus, Rottb.; test: Postemergence weed control under flooded paddy conditions, CYPSE (Flatsedge); format: in vivo; settings: rated three to four weeks after treatment
[3] = tested on: Echinochloa oryzoides (Ard.) Fritsch.; test: Postemergence weed control under flooded paddy conditions, ECHORC (Watergrass (Calif.)); format: in vivo; settings: rated three to four weeks after treatment
Cyperus iria [4] = test: Postemergence weed control under flooded paddy conditions, CYPIR (Rice Flatsedge); format: in vivo; settings: rated three to four weeks after treatment
Cyperus iria [5] = test: Preemergence weed control under flooded paddy conditions, CYPIR (Rice Flatsedge); format: in vivo; note: meaning of each grade not given here
[6] = tested on: Monochoria vaginalis, Presl.; test: Preemergence weed control under flooded paddy conditions, MOOVA (Monochoria); format: in vivo; note: meaning of each grade not given here
[7] = tested on: Oryza sativa, (L.) Tebonnet; test: Rice tolerance to post-transplant applications under flooded paddy conditions (Example 187), ORYSAT (Rice, Tebonnet); note: meaning of each grade not given here
Sagittaria pygmaea, L. [8] = test: Postemergence weed control under flooded paddy conditions, SAGPY (Arrowhead (Pygmaea)); format: in vivo; settings: rated three to four weeks after treatment
[9] = tested on: Oryza sativa, (L.) Tebonnet; test: Rice tolerance to post-transplant applications under flooded paddy conditions (Example 188), ORYSAT (Rice, Tebonnet); settings: rated three to four weeks after treatment
[10] = tested on: Echinochloa oryzoides (Ard.) Fritsch.; test: Preemergence weed control under flooded paddy conditions, ECHORC (Watergrass (Calif.)); format: in vivo; note: meaning of each grade not given here
[11] = tested on: Cyperus serotinus, Rottb.; test: Preemergence weed control under flooded paddy conditions, CYPSE (Flatsedge); format: in vivo; note: meaning of each grade not given here
[12] = tested on: Monochoria vaginalis, Presl.; test: Postemergence weed control under flooded paddy conditions, MOOVA (Monochoria); format: in vivo; settings: rated three to four weeks after treatment
[13] = Rate 0.0320 kg/ha, preemergence, rated 3-4 weeks after treatment
[14] = Rate 0.0620 kg/ha, preemergence, rated 3-4 weeks after treatment
[15] = Rate 0.1250 kg/ha, preemergence, rated 3-4 weeks after treatment
[16] = Rate 0.2500 kg/ha, preemergence, rated 3-4 weeks after treatment
[17] = Rate 0.0320 kg/ha, preemergence, flooded paddy, rated 3-4 weeks after treatment
[18] = Rate 0.0620 kg/ha, preemergence, flooded paddy, rated 3-4 weeks after treatment
[19] = Rate 0.1250 kg/ha, preemergence, flooded paddy, rated 3-4 weeks after treatment
[20] = Rate 0.2500 kg/ha, preemergence, flooded paddy, rated 3-4 weeks after treatment
[21] = Rate 0.0320 kg/ha, preemergence weeds, rated three to four weeks after treatment
[22] = Rate 0.0620 kg/ha, preemergence weeds, rated three to four weeks after treatment
[23] = Rate 0.1250 kg/ha, preemergence weeds, rated three to four weeks after treatment
[24] = Rate 0.2500 kg/ha, preemergence weeds, rated three to four weeks after treatment
[25] = Rate 0.0320 kg/ha, preemergence weeds, flooded paddy, rated three to four weeks after treatment
[26] = Rate 0.0620 kg/ha, preemergence weeds, flooded paddy, rated three to four weeks after treatment
[27] = Rate 0.1250 kg/ha, preemergence weeds, flooded paddy, rated three to four weeks after treatment
[28] = Rate 0.2500 kg/ha, preemergence weeds, flooded paddy, rated three to four weeks after treatment

SMILES: Cc1ccc(OCC(=O)OCC2(c3ccccc3)CC2)c(-c2nsc3ccc(-n4c(=O)cc(C(F)(F)F)n(C)c4=O)cc23)c1 [Example 517, Acetic acid, {{2-{5-[3,6-dihydro-3-methyl-2,6-dioxo-4-(trifluoromethyl)-1(2H)-pyrimidinyl]-1,2-benzisothiazol-3-yl}-p-tolyl}oxy}-, (1-phenylcyclopropyl)methyl ester]
- herbicidal effect rating, SAGPY (Sagittaria pygmaea, L. [1]; [13]): 0.0
- herbicidal effect rating, SAGPY (Sagittaria pygmaea, L. [1]; [14]): 0.0
- herbicidal effect rating, SAGPY (Sagittaria pygmaea, L. [1]; [15]): 0.0
- herbicidal effect rating, SAGPY (Sagittaria pygmaea, L. [1]; [16]): 0.0
- herbicidal effect rating, CYPSE ([2]; Rate 0.0320 kg/ha): 0.0
- herbicidal effect rating, CYPSE ([2]; Rate 0.0620 kg/ha): 0.0
- herbicidal effect rating, CYPSE ([2]; Rate 0.1250 kg/ha): 0.0
- herbicidal effect rating, CYPSE ([2]; Rate 0.2500 kg/ha): 0.0
- herbicidal effect rating, ECHORC ([3]; Rate 0.0320 kg/ha): 0.0
- herbicidal effect rating, ECHORC ([3]; Rate 0.0620 kg/ha): 0.0
- herbicidal effect rating, ECHORC ([3]; Rate 0.1250 kg/ha): 0.0
- herbicidal effect rating, ECHORC ([3]; Rate 0.2500 kg/ha): 0.0
- herbicidal effect rating, CYPIR (Cyperus iria [4]; Rate 0.0320 kg/ha): 3.0
- herbicidal effect rating, CYPIR (Cyperus iria [4]; Rate 0.0620 kg/ha): 5.0
- herbicidal effect rating, CYPIR (Cyperus iria [4]; Rate 0.1250 kg/ha): 9.0
- herbicidal effect rating, CYPIR (Cyperus iria [4]; Rate 0.2500 kg/ha): 9.0
- herbicidal effect rating, CYPIR (Cyperus iria [5]; [17]): 5.5
- herbicidal effect rating, CYPIR (Cyperus iria [5]; [18]): 6.5
- herbicidal effect rating, CYPIR (Cyperus iria [5]; [19]): 5.5
- herbicidal effect rating, CYPIR (Cyperus iria [5]; [20]): 7.0
- herbicidal effect rating, MOOVA [6, 17]: 9.0
- herbicidal effect rating, MOOVA [6, 18]: 9.0
- herbicidal effect rating, MOOVA [6, 19]: 9.0
- herbicidal effect rating, MOOVA [6, 20]: 9.0
- herbicidal effect rating ORYSAT ([7]; Rate 0.0320 kg/ha, rated 3-4 weeks after treatment): 0.0
- herbicidal effect rating ORYSAT ([7]; Rate 0.0620 kg/ha, rated 3-4 weeks after treatment): 0.0
- herbicidal effect rating ORYSAT ([7]; Rate 0.1250 kg/ha, rated 3-4 weeks after treatment): 1.5
- herbicidal effect rating ORYSAT ([7]; Rate 0.2500 kg/ha, rated 3-4 weeks after treatment): 3.0
- herbicidal effect rating, SAGPY (Sagittaria pygmaea, L. [8]; Rate 0.0320 kg/ha): 0.0
- herbicidal effect rating, SAGPY (Sagittaria pygmaea, L. [8]; Rate 0.0620 kg/ha): 0.0
- herbicidal effect rating, SAGPY (Sagittaria pygmaea, L. [8]; Rate 0.1250 kg/ha): 0.0
- herbicidal effect rating, SAGPY (Sagittaria pygmaea, L. [8]; Rate 0.2500 kg/ha): 0.0
- herbicidal effect rating, ORYSAT (rice tolerance) ([9]; Rate 0.0320 kg/ha): 0.0
- herbicidal effect rating, ORYSAT (rice tolerance) ([9]; Rate 0.0620 kg/ha): 0.0
- herbicidal effect rating, ORYSAT (rice tolerance) ([9]; Rate 0.1250 kg/ha): 0.0
- herbicidal effect rating, ORYSAT (rice tolerance) ([9]; Rate 0.2500 kg/ha): 0.0
- herbicidal effect rating, ECHORC [10, 17]: 9.0
- herbicidal effect rating, ECHORC [10, 18]: 9.0
- herbicidal effect rating, ECHORC [10, 19]: 8.0
- herbicidal effect rating, ECHORC [10, 20]: 9.0
- herbicidal effect rating, CYPSE [11, 13]: 3.0
- herbicidal effect rating, CYPSE [11, 14]: 4.5
- herbicidal effect rating, CYPSE [11, 15]: 4.5
- herbicidal effect rating, CYPSE [11, 16]: 0.0
- herbicidal effect rating, MOOVA ([12]; Rate 0.0320 kg/ha): 9.0
- herbicidal effect rating, MOOVA ([12]; Rate 0.0620 kg/ha): 9.0
- herbicidal effect rating, MOOVA ([12]; Rate 0.1250 kg/ha): 9.0
- herbicidal effect rating, MOOVA ([12]; Rate 0.2500 kg/ha): 9.0

SMILES: COC(=O)C(C)Oc1ccc(C)cc1-c1nsc2ccc(-n3c(=O)cc(C(F)(F)F)n(C)c3=O)cc12 (stereo not drawn) [Example 3, Methyl 2-{{2-{5-[3,6-dihydro-3-methyl-4-(trifluoromethyl)-2,6-dioxo-1(2H)-pyrimidinyl]-1,2-benzisothiazol-3-yl}-p-tolyl}oxy}propionate]
- herbicidal effect rating, CYPSE ([2]; Rate 0.0313 kg/ha): 0.0
- herbicidal effect rating, CYPSE ([2]; Rate 0.0625 kg/ha): 0.0
- herbicidal effect rating, CYPSE ([2]; Rate 0.1250 kg/ha): 0.0
- herbicidal effect rating, CYPSE ([2]; Rate 0.2500 kg/ha): 0.0
- herbicidal effect rating, CYPSE ([2]; Rate 0.5000 kg/ha): 0.0
- herbicidal effect rating, ECHORC ([3]; Rate 0.0313 kg/ha): 0.0
- herbicidal effect rating, ECHORC ([3]; Rate 0.0625 kg/ha): 0.0
- herbicidal effect rating, ECHORC ([3]; Rate 0.1250 kg/ha): 0.0
- herbicidal effect rating, ECHORC ([3]; Rate 0.2500 kg/ha): 2.0
- herbicidal effect rating, ECHORC ([3]; Rate 0.5000 kg/ha): 4.0
- herbicidal effect rating, CYPIR (Cyperus iria [4]; Rate 0.0313 kg/ha): 9.0
- herbicidal effect rating, CYPIR (Cyperus iria [4]; Rate 0.0625 kg/ha): 9.0
- herbicidal effect rating, CYPIR (Cyperus iria [4]; Rate 0.1250 kg/ha): 9.0
- herbicidal effect rating, CYPIR (Cyperus iria [4]; Rate 0.2500 kg/ha): 9.0
- herbicidal effect rating, CYPIR (Cyperus iria [4]; Rate 0.5000 kg/ha): 9.0
- herbicidal effect rating, CYPIR (Cyperus iria [5]; in vivo): 9.0
- herbicidal effect rating, MOOVA ([6]; in vivo): 9.0
- herbicidal effect rating, SAGPY (Sagittaria pygmaea, L. [8]; Rate 0.0313 kg/ha): 0.0
- herbicidal effect rating, SAGPY (Sagittaria pygmaea, L. [8]; Rate 0.0625 kg/ha): 0.0
- herbicidal effect rating, SAGPY (Sagittaria pygmaea, L. [8]; Rate 0.1250 kg/ha): 0.0
- herbicidal effect rating, SAGPY (Sagittaria pygmaea, L. [8]; Rate 0.2500 kg/ha): 0.0
- herbicidal effect rating, SAGPY (Sagittaria pygmaea, L. [8]; Rate 0.5000 kg/ha): 0.0
- herbicidal effect rating, ORYSAT (rice tolerance) ([9]; Rate 0.0313 kg/ha): 2.0
- herbicidal effect rating, ORYSAT (rice tolerance) ([9]; Rate 0.0625 kg/ha): 2.0
- herbicidal effect rating, ORYSAT (rice tolerance) ([9]; Rate 0.1250 kg/ha): 3.0
- herbicidal effect rating, ORYSAT (rice tolerance) ([9]; Rate 0.2500 kg/ha): 3.0
- herbicidal effect rating, ORYSAT (rice tolerance) ([9]; Rate 0.5000 kg/ha): 3.0
- herbicidal effect rating, ECHORC ([10]; in vivo): 9.0
- herbicidal effect rating, MOOVA ([12]; Rate 0.0313 kg/ha): 9.0
- herbicidal effect rating, MOOVA ([12]; Rate 0.0625 kg/ha): 9.0
- herbicidal effect rating, MOOVA ([12]; Rate 0.1250 kg/ha): 9.0
- herbicidal effect rating, MOOVA ([12]; Rate 0.2500 kg/ha): 9.0
- herbicidal effect rating, MOOVA ([12]; Rate 0.5000 kg/ha): 9.0

SMILES: Cn1c(C(F)(F)F)cc(=O)n(-c2ccc3snc(C(N)=O)c3c2)c1=O [Example 322, 1,2-Benzisothiazole-3-carboxamide, 5-[3,6-dihydro-3-methyl-2,6-dioxo-4-(trifluoromethyl)-1(2H)-pyrimidinyl]-]
- herbicidal effect rating, SAGPY (Sagittaria pygmaea, L. [1]; [21]): 3.0
- herbicidal effect rating, SAGPY (Sagittaria pygmaea, L. [1]; [22]): 3.0
- herbicidal effect rating, SAGPY (Sagittaria pygmaea, L. [1]; [23]): 3.0
- herbicidal effect rating, SAGPY (Sagittaria pygmaea, L. [1]; [24]): 9.0
- herbicidal effect rating, CYPIR (Cyperus iria [5]; [25]): 4.0
- herbicidal effect rating, CYPIR (Cyperus iria [5]; [26]): 6.0
- herbicidal effect rating, CYPIR (Cyperus iria [5]; [27]): 7.0
- herbicidal effect rating, CYPIR (Cyperus iria [5]; [28]): 9.0
- herbicidal effect rating, MOOVA [6, 25]: 5.0
- herbicidal effect rating, MOOVA [6, 26]: 9.0
- herbicidal effect rating, MOOVA [6, 27]: 9.0
- herbicidal effect rating, MOOVA [6, 28]: 9.0
- herbicidal effect rating ORYSAT ([7]; Rate 0.0320 kg/ha, rated three to four weeks after treatment): 5.0
- herbicidal effect rating ORYSAT ([7]; Rate 0.0620 kg/ha, rated three to four weeks after treatment): 5.0
- herbicidal effect rating ORYSAT ([7]; Rate 0.1250 kg/ha, rated three to four weeks after treatment): 5.0
- herbicidal effect rating ORYSAT ([7]; Rate 0.2500 kg/ha, rated three to four weeks after treatment): 7.0
- herbicidal effect rating, ECHORC [10, 25]: 9.0
- herbicidal effect rating, ECHORC [10, 26]: 9.0
- herbicidal effect rating, ECHORC [10, 27]: 9.0
- herbicidal effect rating, ECHORC [10, 28]: 9.0
- herbicidal effect rating, CYPSE [11, 21]: 5.0
- herbicidal effect rating, CYPSE [11, 22]: 5.0
- herbicidal effect rating, CYPSE [11, 23]: 6.0
- herbicidal effect rating, CYPSE [11, 24]: 9.0

From patent EP0908457B1, “3-(1,2-benzisothiazol- and isoxazol-5-Y1)-2,4(1H,3H)-pyrimidinedione or thione and 3-(1,2-benzisothiazol- and isoxazol-5-y1)-4(3H)-pyrimidinone or thione herbicidal agents” (BASF AKTIENGESELLSCHAFT, priority 1997, dated 1999)
